Results published in the pKa sets of Baltruschat and Czodrowski (2020).

Details: acidic group

Structure (SMILES) | pKa
O=[N+]([O-])c1cc[n+](O)cc1 | -1.7
C(COCCc1nnn[nH]1)OCCc1nnn[n-]1 | 5.37
C[NH2+]CCCNC(=O)/C=N/O | 8.61
Cc1nccc2c1[nH]c1ccccc12 | 14.5
O=C(O)C(=O)/C=C/c1ccccc1 | 1.97
CCP(=O)(O)CC | 3.22
Cc1cc(O)[nH+]c(O)[nH+]1 | 1.2
O=C(O)C1COCCO1 (stereo not given) | 3.15
O=C(O)c1[nH]c2ccccc2[nH+]1 | 0.4
CC(C)[C@H](C(=O)O)N1C[C@H](NC(=O)Cc2ccccc2)C1=O | 3.48
CO/C(C)=C\C(=O)O | 5.81
Nc1nc[nH+]c(S)c1N | 2.21
CCC(=O)c1cc(C(C)=O)n[nH]1 | 9.05
CC(C)(C(=O)O)c1nnnn1C1CCCCC1 | 3.7
[O-]c1nc(NO)cc[n+]1[C@H]1O[C@@H](CO)[C@H](O)[C@@H]1O | 10.5
CC(=O)c1ccc(NS(=O)(=O)c2ccccc2)cc1 | 6.94
CCCC(C(CC)CO)C(CC)C(=O)O (stereo not given) | 4.78
Cc1cnc(NS(=O)(=O)c2ccc(N)cc2)nc1C | 6
Cn1cnc2nc(N)[nH+]c(O)c21 | 3.57
Cn1c(C(=O)O)cc(=O)n(C)c1=O | 0.8
CCc1ccccc1C(=O)O | 3.79
CCOC(=O)c1c(C)nc(C)c(C(=O)OCC)c1-c1ccc(NS(=O)(=O)c2ccc(N)cc2)cc1 | 9.15
O=C(O)[C@H](P)CC[C@H](P)C(=O)O | 3.54

Structure (SMILES) | pKa
Fc1cc(F)c(F)c(S)c1F | 2.75
O=[N+]([O-])c1cccc([Se](=O)O)c1 | 4.07
O=C(O)[C@@H]1CC[C@H](C(=O)O)C1 | 4.24
C=CCC1(C2C=CCCC2)C(=O)[N-]C(=S)NC1=O (stereo not given) | 12.2
CC[C@]1(c2ccccc2)NC(=O)NC1=O | 8.5
C/C(=N/O)c1ccc(O)cc1O | 8.35
[NH3+][C@@H](Cc1nc(I)[nH]c1I)C(=O)[O-] | 8.18
O=C(/C(=N/O)c1ccccc1)c1ccccc1 | 8.8
O=C(Cc1ccccn1)c1ccccc1 | 13.3
CC1CC(=O)N(O)C1(C)C (stereo not given) | 8.85
Oc1ccc(-c2nnn[nH]2)cc1 | 4.28
O=C(O)c1ccc[nH+]c1[O-] | 5.28
CCO[C@H]1C[C@@H]1C(=O)O | 4.46
Cc1cccc2c1C(=O)NC2=O | 10.5
Cc1ccc(I)cc1C(=O)O | 3.62
Cn1cnc2c1NC=NS2(=O)=O | 4.45
C[C@H]1CC[C@H]2[C@H](C)CC[C@@H](C(=O)O)[NH+]2C1 | 2
Cc1ncc(CO)c(C)c1O | 9.98
Cc1cc(Cc2cc(C)c(O)c(C)c2)c([O-])c([N+](=O)[O-])c1 | 11.1
Oc1cccc2cn[nH]c12 | 8.6
CCCCCCCCCCc1c(-c2ccccc2)n[nH]c1O | 11
O=C1NC(=O)c2cc(Cl)ccc21 | 9.48
O=c1cccccc1S | 5.9

Structure (SMILES) | pKa
COc1cccc(CCC(=O)O)c1 | 4.65
O=C(c1ccccc1)c1ccc(O)cc1 | 8.01
[O-][n+]1ccc(O)cc1 | 5.76
O=C(O)/C=C/c1cccc([N+](=O)[O-])c1 | 4.08
O=CCC=O | 4.57
Oc1cc[nH+]cc1 | 4.04
NNC(=O)CF | 11.3
O=P([O-])(O)c1cn2c([nH+]1)[C@@H](O)[C@H](O)[C@@H](O)[C@@H]2CO | 4.84
Oc1ccc(Nc2ccc(O)cc2)cc1 | 9.44
Nc1ncc([N+](=O)[O-])cn1 | 14.7
CCC(CC)C1(CC)C(=O)NC(=S)NC1=O | 7.46
CC(=O)CC(=O)Nc1cccc(C)c1 | 10
O=C(O)c1cc2ccccc2[nH]1 | 3.79
OCC(S)C[S-] (stereo not given) | 10.6
CCN(CC)Cc1cc(OC)ccc1O | 10.9
C[n+]1ccc(C(=O)c2ccccc2)cc1 | 12.2
Nc1ccc(O)c2ncccc12 | 11.2
Oc1n[nH]c(-c2ccccc2)c1Cc1ccccc1 | 7.7
CCC1=CC(=O)C=C(CC)C1=NO | 8.34
Cc1ccc(I)c(C(=O)O)c1 | 2.95
CC1(C)[C@@H]2CC[C@]1(C)C(=O)C2C(=O)O (stereo not given in full) | 3.76
CCC1(c2ccccc2)C(=O)NC(=S)N(C)C1=O (stereo not given) | 7.65
CC(=O)C1CCCCC1=O (stereo not given) | 10.2

Structure (SMILES) | pKa
C/C=C/CCC(=O)O | 4.72
CCC[n+]1cccc2cc(O)ccc21 | 7.08
Sc1cnc2ccccc2c1 | 6.13
NC(=O)c1c(CC(=O)O)n[nH]c1N | 3.5
O=C(O)[C@H](O)c1cccc([N+](=O)[O-])c1 | 3.03
Cc1ncc(C(=O)O)s1 | 3.26
O=C(NCO)c1ccccc1 | 13.1
Cc1ccc(CCC(=O)O)cc1 | 4.74
Cn1cnc2nc([O-])[nH]c(=S)c21 | 12.1
Cc1cccc(O)c1 | 10
COc1ccccc1C(=O)NO | 8.9
O=c1ccc(O)ccc1O | 6.47
O=C(O)/C(I)=C\c1ccccc1 | 2.24
Nc1ccc(O)c(N)c1 | 10.4
O=C(O)c1ccc(Cl)cc1Cl | 2.74
COc1ccc(C)c(C(=O)O)c1 | 3.84
N#C/C(=C(\[O-])O)c1ccccc1 | 8.7
O=[N+]([O-])c1cc(Br)ccc1O | 6.36
[NH3+][C@@H](Cn1cccn1)C(=O)O | 2.2
N#CC(C#N)=NNc1ccc([N+](=O)[O-])cc1Cl | 4.15

Same assay, conditions: basic group

Structure (SMILES) | pKa
Cc1nccc2c1[nH]c1ccccc12 | 6.55
CC(=O)Nc1cccc2cc3ccccc3nc12 | 3
CC(C)(C)c1ccc(C(O)CCCN2CCC(C(O)(c3ccccc3)c3ccccc3)CC2)cc1 (stereo not given) | 8.6
CC(C)CN | 10.4
C/N=C1/CCCCC1C (stereo not given) | 9.47
Cc1ccc(N)cc1C[NH3+] | 4.67
NCc1nnn[n-]1 | 8.54
CNN | 7.87
Cc1nc2c(C)ccc([N+](=O)[O-])c2c(NCCC[NH+](C)C)c1C | 6.67
C[Se]CCN | 9.53
Cc1ccc(N=C2C=CC(=N)C=C2)c(N)c1 | 4.2
COc1ccncc1 | 6.65
Cn1ncc2c(N)ncnc21 | 4.32
c1nc(Cc2c[nH]c(Cc3nc(Cc4c[nH+]c[nH]4)c[nH]3)[nH+]2)c[nH]1 | 5.43
CC(=O)Nc1ccc2cc3ccccc3nc2c1 | 5.6
C[Si](C)(C)CCN | 11
CNc1ccncn1 | 6.12
[NH3+][C@@H](Cc1nc(I)[nH]c1I)C(=O)[O-] | 2.72
Cc1ccnc(NS(=O)(=O)c2ccccc2)n1 | 0.59
C[Si](C)(C)CCCN | 10.8
O=C(Cc1ccccn1)c1ccccc1 | 4.53
NCc1ccc(O)c(O)c1 | 8.6

Structure (SMILES) | pKa
COC(=O)C([NH3+])Cc1c[nH]cn1 (stereo not given) | 5.41
NCCC[n+]1cc(Br)c2ccccc2c1 | 9.53
CCN(CC)Cc1c(C)cccc1O | 8.65
CCN(CC)CCCCNc1ccnc2ccccc12 | 10.2
Cc1ccc(N)cc1Br | 4.02
Cc1ncc(CO)c(C)c1O | 5.4
N#CC1C(=O)Cc2ccccc21 (stereo not given) | 4.8
Cc1ccc2c(c1)CCN2 | 5
CCC(C)Nc1ccccc1 (stereo not given) | 5.47
CCN(CC)[C@H]1CCC[C@@H]1N(C)C | 9.91
Cc1ccccc1NC(=O)CN1CCCCC1 | 7.7
Cc1cc(C)nc(N)c1 | 7.84
CC(C)[NH+]1CCC(NN)CC1 | 5.75
Cc1n[nH]c2c(N)ncnc12 | 5.02
NC(=S)C1(N)CCCCC1 | 7.23
C=C[C@H]1C[NH+]2CC[C@@H]1C[C@H]2[C@H](O)c1ccnc2ccc(OC)cc12 | 4.22
CNNC1CCN(C)CC1 | 8.7
N=C(c1ccccc1)c1ccc(O)cc1 | 6.45
CCOc1ccc2nc3cc([N+](=O)[O-])ccc3c(N)c2c1 | 7.5
CCC(O)CN(C)CC(O)CC (stereo not given) | 9
COc1ccc(CN)c([N+](=O)[O-])c1 | 8.77
CN(C)CCCC(=O)Oc1ccc([N+](=O)[O-])cc1 | 9.6

Structure (SMILES) | pKa
CC[NH2+]/C(=C/C(=O)c1cccc(S(=O)(=O)[O-])c1)n1ccnc1 | 4.5
c1cc(C2CCCN2)nc(C2CCC[NH2+]2)c1 (stereo not given) | 9.46
c1ccc2nc3ccccc3cc2c1 | 5.48
CNc1ncccn1 | 3.82
CN(C)c1cccc([N+](C)(C)C)c1 | 2.6
CCCNCCC | 11
COc1ncc2ccccc2n1 | 1.31
O=C([O-])CCCCCN1CCCCC1 | 10.5
CCCCCCCCCCCCCCCC[NH+](CCCCCCCCCCCCCCCC)CCCn1ccnc1 | 4.4
CCN(CC)CCCCCCCC(C)Nc1c2ccc(Cl)cc2nc2ccc(OC)cc12 (stereo not given) | 10.4
O=C(O)c1cc2ccccc2[nH]1 | -0.57
CCOc1ccc2nccc([C@@H](O)[C@@H]3C[C@H]4CC[NH+]3C[C@@H]4CC)c2c1 | 4.05
CCN(CC)Cc1cc(OC)ccc1O | 8.62
COCCCN | 9.92
NC[C@H]1CCCC[C@@H]1O | 10.2
c1ccc(-c2ccoc2)nc1 | 4.65
C[Si](C)(CN)O[Si](C)(C)CN | 10.3
COc1ccc(-c2cc3cnccc3[nH]2)c(OC)c1 | 8.49
Nc1ccc(O)c2ncccc12 | 5.67
CNC(CO)CO | 9.12
CCN(CC)CCCNc1ccnc2ccccc12 | 10
CN(C)CCCNC(=O)/C=N/[O-] | 9.78

Structure (SMILES) | pKa
c1cc(-c2ccoc2)ccn1 | 5.72
Sc1cnc2ccccc2c1 | 2.33
CN(C)c1ccc(SC#N)cc1 | 3.3
NC(=O)C(N)Cc1c[nH]cn1 (stereo not given) | 7.64
COc1cccc(C(=O)NC2CC3CCC(C2)N3Cc2ccccc2)c1OC (stereo not given) | 8.91
CCCCCCCCCCCCNCCCCCCCCCCCC | 11
C=C(C)C(=O)OCCNCCCC | 9.12
Nc1ccc(O)c(N)c1 | 5.7
Cc1cc2nccc(NCCC[NH+](C)C)c2cc1[N+](=O)[O-] | 7.38
CCN(CC)C(C)C=C(c1cccs1)c1cccs1 (stereo not given) | 8.9
CN1C[C@H](C(=O)[O-])C=C2c3cccc4[nH]cc(c34)C[C@@H]21 | 8.49
CCN(C)N | 7.3
CCOC(=O)CCN | 9.13
CCOC(=O)c1cccnc1 | 3.2
CCCCCCCCCCCCCCCNCCCCCCCCCCCCCCC | 11
CCNCC(=O)[O-] | 10.2
CN(C)/C=N/c1ccccc1Br | 6.71
Nc1ccc2c(c1)Cc1cc(O)ccc1-2 | 4.88
N#CC(C#N)=NNc1ccc([N+](=O)[O-])cc1Cl | -0.62
Nc1cccc(-c2ccccc2)c1 | 4.28
